Test results taken from patent US20230218589A1, “COMPOUND FOR PREVENTION OR TREATMENT OF A SKIN CANCER OR SKIN PRECANCER” (UNIQUEST PTY LTD, priority 2020, published 2023).

Experiments:
actinic keratoses (AKs) = conditions: topical therapy, organ transplant recipients (Heppt et al. 2019); cited from earlier work
human T cells = test: Human T cell proliferation assay (PBMCs, anti-CD3, CellTiter-Glo); type: cell-based; conditions: 50 ng/mL cyclosporine A, anti-CD3, 5 days
Protocol: Cyclosporine A 1 mg/mL stock (CsA—Sigma) was dissolved in DMSO, Rapamycin 5 mg/mL stock (LC Labs) was dissolved in ethanol.
Under sterile conditions, a 96 well flat bottom plate with white opaque walls (Perkin Elmer) was coated with 10 μg per well of purified human anti-CD3 antibody (clone OKT-3; Biolegend) in a volume of 50 μL per well in sterile PBS. The plate was covered in parafilm and incubated overnight at 4° C. Just prior to addition of Peripheral Blood Mononuclear Cells (PBMCs), the antibody solution was removed and discarded using a multichannel pipette. Wells were washed by adding 200 μL sterile PBS to each well and incubating for 2 min. PBS wash solution was removed and discarded following incubation. The wash step was repeated once, for a total of two PBS washes.
20 mL of blood from a consenting healthy volunteer was collected into lithium heparin vacuette containers (Greiner Bio-One). Under sterile conditions, blood from each container was pooled into a single tube and mixed thoroughly with 20 mL FACS buffer (2% FBS in 1×PBS). 15 mL Ficoll-Paque (GE Healthcare) was added to two 50 mL Falcon tubes, before 20 mL of whole blood/FACS buffer mixture was carefully and slowly dispensed on top of the Ficoll layer. Tubes were centrifuged at 800 g for 20 min at room temperature with the brake off. After centrifugation, the resulting PBMC layer between the plasma and Ficoll layers was carefully removed and transferred to a new 50 mL Falcon tube. Tubes were topped up to 45 mL with FACS buffer, then centrifuged at 500 g for 15 min. Supernatant was carefully removed without disturbing cell pellet, then PBMCs from both tubes were pooled. 30 mL of pre-warmed complete RPMI media [RPMI 1640 (Gibco), 10% heat inactivated FBS (Gibco), 1× Penicillin/Streptomycin/L-Glutamine (Gibco), 100 μM 2-Mercaptoethanol (Sigma)] was added to PBMCs, before centrifugation at 500 g for 15 min at room temperature. Supernatant was removed carefully without disturbing cell pellet. PBMCs were resuspended in 1 mL complete RPMI media.
PBMCs were counted manually using a haemocytometer and cell concentration was adjusted to 1.5×10^6 cells/mL with complete RPMI media. 50 μL of cell suspension was added to appropriate wells of the 96 well flat bottom plate with white opaque walls pre-coated in human anti-CD3. The final number of cells per well was 7.5×10^4.
Cells were incubated in a humidified incubator at 37° C. with 5% CO2 for 1 hour before Compound 1 (or vehicle only) was diluted in complete RPMI medium and added to the appropriate wells at the concentration required. The final volume in all wells was 100 μL. Cells were incubated for 5 days in a humidified incubator at 37° C. with 5% CO2.
CellTiter-Glo Luminescent Cell Viability Assay (Promega) was performed to determine the level of metabolically active cells per well based on ATP quantification. CellTiter-Glo Buffer and lyophilised CellTiter-Glo Substrate were equilibrated to room temperature. CellTiter-Glo Substrate was reconstituted with 10 mL CellTiter-Glo Buffer and gently vortexed for 1 minute to create the CellTiter-Glo Reagent. The 96 well plate containing PBMCs was equilibrated to room temperature for 30 min. Once at room temperature, 100 μL of CellTiter-Glo Reagent was dispensed using a multichannel pipette into each well containing 100 μL cells and media. The plate was mixed for 2 min at room temperature on an orbital shaker to induce cell lysis. The plate was then incubated for 10 min at room temperature in the dark to stabilize the luminescence signal. Luminescence signal was recorded using a CLARIOstar Plus plate reader (BMG Labtech).
PBMCs were stimulated with human anti-CD3 antibody and T cells were allowed to proliferate at 37° C. with 5% CO2 in a humidified incubator for 5 days. Proliferation/viability was assessed via a CellTiter-Glo Luminescent Cell Viability Assay and luminescence was read using a CLARIOstar Plus plate reader. […]

In the case of `O=c1[nH]cc(F)c(=O)[nH]1` [5-fluorouracil], the “complete clearance rate of AKs” value (actinic keratoses (AKs)) is listed as 11%.

For `CC(C)Cn1cnc2c(N)nc3ccccc3c21` [imiquimod], the “complete clearance rate of AKs” value (actinic keratoses (AKs)) is given as 27.5-62.1%.

For cyclosporine A [reference compound], the “T cell proliferation compared to the vehicle control” value (human T cells) was “inhibited”.
